Results as given in patent US8937167B2 (Washington University, priority 2009, dated 2015).
Where two headings read alike, the source gives them in different places.

Legend:
UTI89 biofilm = assay: UTI89 type 1 dependent biofilm formation (inhibition/prevention) assay on PVC, crystal violet; assay type: cell-based, uropathogenic E. coli UTI89; conditions: Escherichia coli
Method: In yet other embodiments, activity of the compound may be measured using the ability of the compound to prevent or disrupt biofilm formation.
UTI89 biofilm was grown in LB+/− mannoside for 24 h at 22° C. in PVC plates and quantitated using crystal violet. UTI89 biofilm for confocal microscopy was grown in LB for 24 h at 22° C. on PVC coverslips. Mannoside was then added and biofilm was grown for an additional 16 h. Coverslips were then washed in PBS, fixed in 2% paraformaldehyde and stained with SYTO9 prior to confocal microscopy. For all animal experiments UTI89 or PBC-1 was grown 2×24 h statically in LB at 37° C. and inoculated at a dose of 1×10^7 bacteria in 50 μl. All mice used were female C3H/HeN (Jackson). For the pretreatment studies, bacteria were incubated with mannoside for 20 min prior to inoculation into the mouse. […] For CFU counts, bladders were harvested at 6 hpi and placed in 1 mL PBS. Bladders were then homogenized, diluted and plated on LB. After growth at 37° C. overnight, bacterial counts were determined. LacZ staining and gentamicin protection assays were performed at 6 hpi. […] Water was changed daily with fresh antibiotics. Standard growth curve assays and hemagglutination assays were performed with TMP-SMZ. All statistical analysis performed was a two-tailed Mann-Whitney U test.
(§1) Biofilm assay. UTI89 was grown in LB broth in wells of PVC microtiter plates at 23° C. in the presence of individual mannosides at varying concentrations. After 48 h of growth, wells were rinsed with water and stained with crystal violet for quantification as described. For biofilm disruption activity in PVC plates, UTI89 was grown in LB broth in wells of PVC microtiter plates at 23° C. After 24 h of growth, mannoside was added and biofilms were grown for an additional 16 h. Wells were then rinsed, stained with crystal violet and quantified. For biofilm disruption activity on PVC coverslips, UTI89 was grown in LB broth in 50 mL conicals containing PBC coverslips at 23° C. After 24 h of growth, 0.3 μM ZFH-2056 was added and biofilm was grown for an additional 16 h.
UTI89 biofilm was grown in LB+/− mannoside for 24 h at 22° C. in PVC plates and quantified using crystal violet. UTI89 biofilm for confocal microscopy was grown in LB for 24 h at 22° C. on PVC coverslips followed by mannoside treatment for 16 h. For all animal experiments UTI89 or PBC-1 was grown 2×24 h statically in LB at 37° C. and inoculated at a dose of 1×10^7 bacteria in 50 μl. All mice used were female C3H/HeN (Harlan). For the chronic UTI model, mice were infected for 2 weeks prior to treatment with mannoside. […] For oral dosing, 100 μl of 10 mg/ml (50 mg/kg) or 20 mg/ml (100 mg/kg) mannoside in 8% DMSO was inoculated with a gavage needle 30 min prior to inoculation of bacteria. […] For CFU counts, bladders were harvested at 6 hpi and placed in 1 mL PBS. Bladders were then homogenized, diluted and plated on LB. After growth at 37° C. overnight, bacterial counts were determined. LacZ staining and gentamicin protection assays were performed at 6 hpi. […] Water was changed daily with fresh antibiotics. Standard growth curve and hemagglutination assays were performed. All statistical analysis performed was a two-tailed Mann-Whitney U test. […] Compounds 7-10 were prepared using slightly modified procedures. All compounds are >95% pure as determined by HPLC/MS and ^1H NMR.
as §1, with “UTI89” for “Biofilm assay. UTI89”, “For biofilm disruption activity on PVC coverslips, UTI89 was grown in LB broth in 50 mL conicals containing PBC coverslips at 23° C. After 24 h of growth, 0.3 μM ZFH-2056 was added and biofilm was grown for an additional 16 h.” left out

FimH = FimH (Escherichia coli, UniProt Q1R2J4); conditions: for HAI Titer EC>50: Table 21;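 as to all read-outs here: hemagglutination inhibition of guinea pig erythrocytes agglutinated by type 1 piliated uropathogenic E. coli via FimH mannose binding, quantified through serial dilutions of compound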
[1] = read-out: Biofilm IC50 [calculated]
[2] = read-out: Biofilm IC50 (approximated)
[3] = Table 18, Examples 30-36 numbering
[4] = Table 19, Examples 30-36 numbering
[5] = read-out: HA 50% titer EC90, Table 12, Example 6 numbering

Cc1cc(=O)oc2cc(OC3OC(CO)C(O)C(O)C3O)ccc12 [4-methylumbellferyl-α-D-mannoside, reference compound]
IC50 (UTI89 biofilm; [1]): 1.7 µM

CCCCOC1OC(CO)C(O)C(O)C1O (stereo not shown) [Compound 1ZFH84]
IC50 (UTI89 biofilm; read-out: Biofilm Prevention IC50): ~500 µM
HAI Titer EC>50 (FimH; ZFH/JWJ codes): 125.000 µM

COC(=O)Cc1ccc(OC2OC(CO)C(O)C(O)C2O)cc1 (stereo not shown) [Compound 1ZFH171, methyl 2-[4-[3,4,5-trihydroxy-6-(hydroxymethyl)tetrahydropyran-2-yl]oxyphenyl]acetate]
IC50 (UTI89 biofilm; [2]): ~100 µM
HAI Titer EC>90 (FimH): 30.000 µM

CCc1ccc(OC2OC(CO)C(O)C(O)C2O)cc1 (stereo not shown) [Compound 1ZFH178, 2-(4-ethylphenoxy)-6-(hydroxymethyl)tetrahydropyran-3,4,5-triol]
IC50 (UTI89 biofilm; [2]): 10 to 100 µM
IC50 (UTI89 biofilm; [1]): ~90 µM
HAI Titer EC>90 (FimH): 23.000 µM

CCCc1ccc(OC2OC(CO)C(O)C(O)C2O)cc1 (stereo not shown) [Compound 1ZFH179, 2-(hydroxymethyl)-6-(4-propylphenoxy)tetrahydropyran-3,4,5-triol]
IC50 (UTI89 biofilm; [2]): 10 to 100 µM
IC50 (UTI89 biofilm; [1]): ~55 µM
HAI Titer EC>90 (FimH): 15.000 µM

OC[C@@H]1OC(Oc2ccc(-c3ccc4ncncc4c3)cc2)[C@H](O)[C@@H](O)[C@@H]1O (stereo partly drawn) [Compound 4ZFH247, (2S,3S,4S,5R)-2-(hydroxymethyl)-6-(4-quinazolin-6-ylphenoxy)tetrahydropyran-3,4,5-triol]
HAI Titer EC>90 (FimH): 0.375 µM
HAI Titer EC>50 (FimH; ZFH/JWJ codes): 0.375 µM
HAI Titer EC>90 (FimH; Table 22, ZFH/JWJ codes): 0.375 µM

OC[C@@H]1OC(Oc2ccc(-c3ccc4ccncc4c3)cc2)[C@H](O)[C@@H](O)[C@@H]1O (stereo partly drawn) [Compound 4ZFH275, (2S,3S,4S,5R)-2-(hydroxymethyl)-6-[4-(7-isoquinolyl)phenoxy]tetrahydropyran-3,4,5-triol]
HAI Titer EC>90 (FimH): 0.750 µM
HAI Titer EC>50 (FimH; ZFH/JWJ codes): 0.750 µM
HAI Titer EC>90 (FimH; Table 22, ZFH/JWJ codes): 0.750 µM

CC(=O)Nc1ccc(-c2ccc(OC3OC(CO)C(O)C(O)C3O)cc2)cc1 (stereo not shown) [Compound 4ZFH277]
HAI Titer EC>50 (FimH; ZFH/JWJ codes): 1.000 µM

CNC(=O)c1cc(C(=O)NC)cc(-c2ccc(OC3O[C@@H](CO)[C@@H](O)[C@H](O)[C@H]3O)c(C)c2)c1 (stereo partly drawn) [Compound 4ZFH284, N1,N3-dimethyl-5-[3-methyl-4-[(3R,4S,5S,6S)-3,4,5-trihydroxy-6-(hydroxymethyl)tetrahydropyran-2-yl]oxy-phenyl]benzene-1,3-dicarboxamide]
HAI Titer EC>90 (FimH): 0.016 µM
HAI Titer EC>50 (FimH; ZFH/JWJ codes): 0.016 µM
HAI Titer EC>90 (FimH; Table 22, ZFH/JWJ codes): 0.016 µM

NC(=O)Nc1csc(-c2ccc(OC3OC(CO)C(O)C(O)C3O)cc2)c1 (stereo not shown) [Compound 4ZFH303]
HAI Titer EC>50 (FimH; ZFH/JWJ codes): 1.000 µM

CC(=O)Nc1ccc(-c2ccc(OC3OC(CO)C(O)C(O)C3O)cc2)cc1C(=O)O (stereo not shown) [Compound 4ZFH306]
HAI Titer EC>50 (FimH; ZFH/JWJ codes): 0.750 µM

COC(=O)c1cc(-c2ccc(OC3OC(CO)C(O)C(O)C3O)cc2)ccc1NC(C)=O (stereo not shown) [Compound 4ZFH308]
HAI Titer EC>50 (FimH; ZFH/JWJ codes): 0.250 µM

COC(=O)c1cccc(-c2ccc(O[C@H]3O[C@H](CO)[C@@H](O)[C@H](O)[C@@H]3O)c(F)c2)c1 [Compound 4a, Methyl 3-[3-fluoro-4-[(2R,3S,4S,5S,6R)-3,4,5-trihydroxy-6-(hydroxymethyl)tetrahydropyran-2-yl]oxy-phenyl]benzoate]
HAI Titer EC>90 (FimH; Table 17, Examples 30-36 numbering): 0.75 µM

CNC(=O)c1cccc(-c2ccc([C@@H](O)C3OC(CO)C(O)C(O)C3O)cc2)c1 (stereo partly shown) [Compound 5ZFH38]
HAI Titer EC>50 (FimH; ZFH/JWJ codes): 0.250 µM

CNC(=O)c1cccc(-c2ccc([C@H](O)C3OC(CO)C(O)C(O)C3O)cc2)c1 (stereo partly shown) [Compound 5ZFH48]
HAI Titer EC>50 (FimH; ZFH/JWJ codes): 24.000 µM

CNC(=O)c1cccc(-c2ccc(CC3OC(CO)C(O)C(O)C3O)cc2)c1 (stereo not shown) [Compound 5ZFH49]
HAI Titer EC>50 (FimH; ZFH/JWJ codes): 1.000 µM

OCC1OC(Oc2ccc(-c3cccc4cnccc34)cc2)C(O)C(O)C1O (stereo not shown) [Compound 5ZFH61]
HAI Titer EC>50 (FimH; ZFH/JWJ codes): 0.250 µM

O=c1[nH]ccc2ccc(-c3ccc(OC4OC(CO)C(O)C(O)C4O)cc3)cc12 (stereo not shown) [Compound 5ZFH63]
HAI Titer EC>50 (FimH; ZFH/JWJ codes): 0.100 µM

O=C(NCCO)c1cccc(-c2ccc(O[C@H]3O[C@H](CO)[C@@H](O)[C@H](O)[C@@H]3O)cc2)c1 [Compound 10a, N-(2-Hydroxyethyl)-3-[4-[(2R,3S,4S,5S,6R)-3,4,5-trihydroxy-6-(hydroxymethyl)tetrahydropyran-2-yl]oxyphenyl]benzamide]
HAI Titer EC>90 (FimH; [3]): 0.50 µM

NCCNC(=O)c1cccc(-c2ccc(O[C@H]3O[C@H](CO)[C@@H](O)[C@H](O)[C@@H]3O)cc2)c1 [Compound 10b, N-(2-Aminoethyl)-3-[4-[(2R,3S,4S,5S,6R)-3,4,5-trihydroxy-6-(hydroxymethyl)tetrahydropyran-2-yl]oxyphenyl]benzamide]
HAI Titer EC>90 (FimH; [3]): 3.0 µM
fold drop in HAI activity (FimH; relative to methyl amide 2): 6 fold

O=C(Nc1ccncc1)c1cccc(-c2ccc(O[C@H]3O[C@H](CO)[C@@H](O)[C@H](O)[C@@H]3O)cc2)c1 [Compound 10e, N-(4-Pyridyl)-3-[4-[(2R,3S,4S,5S,6R)-3,4,5-trihydroxy-6-(hydroxymethyl)tetrahydropyran-2-yl]oxyphenyl]benzamide]
HAI Titer EC>90 (FimH; [3]): 0.25 µM

COC(=O)c1cncc(-c2ccc(O[C@H]3O[C@H](CO)[C@@H](O)[C@H](O)[C@@H]3O)cc2)c1 [Compound 12b, Methyl 5-[4-[(2R,3S,4S,5S,6R)-3,4,5-trihydroxy-6-(hydroxymethyl)tetrahydropyran-2-yl]oxyphenyl]pyridine-3-carboxylate]
HAI Titer EC>90 (FimH; [4]): 0.19 µM

COC(=O)c1ccc(-c2ccc(O[C@H]3O[C@H](CO)[C@@H](O)[C@H](O)[C@@H]3O)cc2)s1 [Compound 13b, Methyl 5-[4-[(2R,3S,4S,5S,6R)-3,4,5-trihydroxy-6-(hydroxymethyl)tetrahydropyran-2-yl]oxyphenyl]thiophene-2-carboxylate]
HAI Titer EC>90 (FimH; [4]): 1.0 µM

NC(=O)Nc1csc(-c2ccc(O[C@H]3O[C@H](CO)[C@@H](O)[C@H](O)[C@@H]3O)cc2)c1 [Compound 13c, [5-[4-[(2R,3S,4S,5S,6R)-3,4,5-Trihydroxy-6-(hydroxymethyl)tetrahydropyran-2-yl]oxyphenyl]-3-thienyl]urea]
HAI Titer EC>90 (FimH; [4]): 1.0 µM

COC(=O)c1csc(-c2ccc(O[C@H]3O[C@H](CO)[C@@H](O)[C@H](O)[C@@H]3O)cc2)c1 [Compound 13d]
HAI Titer EC>90 (FimH; [4]): 2.0 µM

OCc1ccccc1-c1ccc(OC2OC(CO)C(O)C(O)C2O)cc1 (stereo not shown) [Compound 14g]
fold less potent in HA titer (FimH; ortho 14g relative to meta 14h): over 5 fold
EC50 (FimH; read-out: 50% HA titer, Example 6 numbering): 16 µM
EC90 (FimH; [5]): 16 µM

OCc1ccc(-c2ccc(OC3OC(CO)C(O)C(O)C3O)cc2)cc1 (stereo not shown) [Compound 14i]
EC90 (FimH; [5]): 6 µM

CN(C)C(=O)c1cccc(-c2ccc(OC3OC(CO)C(O)C(O)C3O)cc2)c1 (stereo not shown) [JJ-I-93, N,N-dimethyl-3-[4-[3,4,5-trihydroxy-6-(hydroxymethyl)tetrahydropyran-2-yl]oxyphenyl]benzamide]
HAI Titer EC>90 (FimH): 3.000 µM

COC1OC(CO)C(O)C(O)C1O (stereo not shown) [Methylaman, reference compound]
EC50 (FimH; read-out: HA 50% titer, Example 6 numbering): > 1000 µM

O=[N+]([O-])c1ccc(OC2OC(CO)C(O)C(O)C2O)cc1 (stereo not shown) [PNP-mannoside, reference compound]
HAI Titer EC>90 (FimH): 31.000 µM

CCCCO[C@H]1O[C@H](CO)[C@@H](O)[C@H](O)[C@@H]1O [butyl-α-D-mannoside, reference compound]
EC90 (FimH; read-out: HAI Titer EC90): 125 µM
